What was measured:
[1] = tested on: hair follicle stem cells (HFSCs); assay: In vitro HFSC proliferation, BrdU pulse-labeling with Lgr6 immunostaining; type: cell-based, Human; conditions: 50 nM peptide or 4.5 nM PEDF in medium; BrdU 2 hours; control 31.9±5.6%
Procedure: FIG. 5A provides immunofluorescence microscopy photographs and FIG. 5B is a histogram, and together, they illustrate the in vitro proliferation of HFSCs from treatment groups according to one example of the present disclosure. HFSC proliferation was determined by BrdU labeling for 2 hours. HFSCs (Lgr6, green) and BrdU (red) were detected by immunofluorescence microscopy (original magnification, ×1000). Twenty randomly selected fields in each group were photographed, and the percentage of BrdU and Lgr6-double positive cells (pale pink) per total Lgr6-positive cells was calculated. *P<0.001 versus untreated cells.
Human hair follicles were collected from hairs of healthy donors. The follicles were dissected with tweezers under microscope and most of adipose and connective tissue was removed. The bulge region of hair follicle under the sebaceous gland was cut and then bulge fragments (including central isthmus) were transferred into a 35-mm dish containing 1 ml of collagenase A (1 mg/ml; Roche) and incubated for 1.5 hours at 37° C. to digest the collagen capsule. Subsequently, the bulge fragments were transferred into a fresh cell culture dish containing dispase II (2.4 U/ml)/0.05% trypsin and further incubated for 1.5 hours at 37° C. to obtain a single cell suspension.
After mechanical dissection and enzymatic digestion, the suspended bulge cells isolated from five bulge fragments were seeded into a well of 12-well culture plate and incubated with the basal medium for 5 days to facilitate cell adhesion. The basal medium contains four parts Gibco calcium-free Dulbecco's modified Eagle's medium (DMEM) and one part Ham's F12 medium (calcium concentration reached about 0.25 mM) and supplemented with 10% FBS, 10 ng/ml human epidermal growth factor, 500 mg/I L-glutamine, 0.2% bovine pituitary extract, […] hydrocortisone, 1% ITSE as well as antibiotic-antimicotic solutions. Cultivation method was similar to that of Blazejewska et al. (Stem Cells 2009; 27:642). After 5 days of incubation, cells were cultured in the serum-free basal medium or basal medium containing 4.5 nM PEDF, 50 nM 29-mer, or 50 nM 20-mer, until near confluence (about 2 weeks; passage 0). The medium was changed every 2 to 3 days. The bulge cells were co-cultured with 3T3 fibroblast feeder cells. For passage, near-confluent cells were harvested by enzymatic treatment (i.e., 0.25% trypsin) for 5 min at 37° C. Approximately 1×10^5 human bulge cells were transferred to a new dish and allowed to grow for 14 days to near confluence (passage 1). […]

[2] = tested on: full-thickness skin excisional wounds; assay: Skin wound healing in mice, wound area from photographs; type: in vivo, C57L/B6 mice; conditions: for residual epithelial defects, percentage of the original wound: 25 μl skin ointment with 50 μM peptide once daily
Procedure: FIG. 6A provides photographs and FIG. 6B is a histogram, and together, they illustrate the skin (epithelial) wound-healing of mice from treatment groups according to another example of the present disclosure. 4 mm punch wounds were made on the dorsal side of C57/B6 mice. Skin ointment was treated once a day. Photographs of the wounded skin and ruler (scale 10 mm) were captured with a CCD camera (Olympus). The residual epithelial defect (%) is presented as percentage of the original wound. Data are shown as mean±SE.
(§1) To perform full-thickness skin excision, 8- to 10-week-old C57L/B6 mice were respectively anesthetized by an intraperitoneal injection of a mixture of zoletil (6 mg/kg) and xylazine (3 mg/kg). Two full-thickness skin excisional wounds, 4 mm in diameter were made on either side of the dorsal midline using Sklar Tru-Punch disposable biopsy punch (Sklar, West Chester, Pa., USA). In each treatment group (n=6), the skin wound was treated with 25 μl skin ointment (containing 50 μM synthetic peptide and 0.006 μl DMSO vehicle) once daily after the skin scraping. In the control group (n=6), skin wound was treated with 25 μl of skin ointment with equal concentration of DMSO. Each gram of the above skin ointment contains 5 mg neomycin sulfate and 12.5 mg Bacitracin Zinc. Wounds were left uncovered and harvested 4 and 7 days after injury. Mice were housed individually during the healing period.
The area of wound was quantified from the photographs using a computer-assisted image analyzer (Adobe Photoshop CS3 10.0) and was calculated as the percentage of residual epithelial defect at each time point/initial wound area.

[3] = tested on: basal cells of the hyper-proliferative epithelium; assay: Cell replication at basal layer of HE tissue at day 4 post skin wounding, BrdU immunohistochemistry; type: in vivo, C57L/B6 mice; conditions: day 4 of skin ointment treatment; BrdU i.p. 3 hours before euthanasia; control wound 30.8±8.1%
Excerpt: FIGS. 9A and 9B illustrate histological analysis of cell replication at day 4 post-skin wounding. FIG. 9A provides photographs in which specimens were immunehistologically stained with BrdU to observe DNA replication (deep brown color) and counterstained with hematoxylin to observe nuclei. […] (Original magnification, ×200). FIG. 9B is a histogram illustrating numbers of BrdU-positive cells at basal layer of HE tissue. A labeling index (%) was computed as the number of labeled cells divided by the total number of cells at basal layer of HE tissue. *P<0.05 versus control wound.
2×10^5 limbal cells (the 1st passage) were seeded at a slide coated with FNC COATING MIX® solution (Athena Enzyme Systems, Baltimore, Md.) and incubated with a culture medium for one day. BrdU (final, 10 μM) was added to the culture for 2 hours. After being fixed with 4% paraformaldehyde, cells were exposed to cold methanol for 2 minutes, and then treated with 1 N HCl at RT for 1 hour before performing immunofluorescence. For animal study, BrdU was reconstituted in DMSO as stock (80 mM). 10 μl of BrdU mixed with 90 μl of PBS was intraperitoneally injected into mouse 3 hours prior to euthanasia. DNA synthesis was assessed by BrdU labeling with anti-BrdU antibodies.
as §1
To investigate whether skin resurfacing process, which involves cell replication, is accelerated by 29-mer, Mo 29-mer, 20-mer, or Mo 20-mer, wounds were treated with skin ointment containing 29-mer, Mo 29-mer, 20-mer, or Mo 20-mer for 4 days, and then mice were intraperitoneally injected with BrdU for further 3 hours before euthanized. […] This observation was consistent with the thicker HE tissue treated with 29-mer or 20-mer.

[4] = day 4 post-injury, control 61.5±3.2%
[5] = day 7 post-injury, control 44.5±5.3%

Sequence	percentage of BrdU and Lgr6-double positive cells per total Lgr6-positive cells [1] [%]	promotion of skin wound healing ([2]; days 4 and 7, 50 μM peptide skin ointment once daily)	BrdU-positive cells at basal layer of HE tissue, labeling index [3] [%]	residual epithelial defects, percentage of the original wound [2, 4] [%]	residual epithelial defects, percentage of the original wound [2, 5] [%]
EQRTESIIHRALYYDLIS [18-mer]	30.1±6.3	not able to promote wound healing	–	–	–
SLGAEHRTESVIHRALYYDL [Mo 20-mer, synthetic peptide derived from mouse PEDF]	–	–	49.2±4.3	49.6±3.9	20.3±7.5
SLGAEHRTESVIHRALYYDLITNPDIHST [Mo 29-mer, synthetic peptide derived from mouse PEDF]	–	–	52.5±2.5	47.8±4.3	16.8±6.6
SLGAEQRTESIIHRALYYDL [20-mer, synthetic peptide identical to residues 11-30 of the 39-mer]	79.5±2.6	–	53.1±6.5	50.1±3.8	20.0±4.9
SLGAEQRTESIIHRALYYDLISSPDIHGT [29-mer, short synthetic PEDF peptide derived from the 39-mer]	86.2±3.9	–	47.9±5.0	46.3±3.7	18.2±4.3

Reference: patent US9617311B2, “Use of PEDF-derived polypeptides for promoting stem cells proliferation and wound healing” (Mackay Memorial Hospital, priority 2011, dated 2017)
